Legend:
pS6RP in PC3 tumor = test: In vivo PK/PD study, PC3 tumor bearing mice, pS6RP; details: Mus musculus
Method: PC3 cells were cultured at 37° C. in a 5% CO2 incubator using Hams F12 K medium. Ten million (10^7) cells were injected subcutaneously to the right flank region of athymic male mice (Harlan, age: 6-7 weeks, weight: about 20 g). Tumor bearing mice were randomized when the tumor volume reached about 250 mm^3 and three mice were used per each time point. Test compounds of formula (I) were formulated in 40% HPCD in 1×PBS, pH 7.4 and dosed orally at 50 mg/kg single dose (dose volume−10 mL/kg). Plasma and tumor samples were collected at 0 (vehicle control animals), 1, 4 and 24 hours post dosing. Blood was drawn (retro orbital) to a tube containing 0.2% EDTA for plasma collection. The tumor was excised from the mouse and immediately frozen in liquid nitrogen for PD analysis. Tumor and plasma drug concentrations were measured for PK analysis using LC-MS.
Snap frozen tumor samples were pulverized in a mortar (Belart) containing liquid nitrogen and tumor powder was stored at −80° C. until analysis. Pre coated ELISA kits (Cell Signaling Technology; pAKT(T308), CST#7135; pAKT(5473), CST#7134 and pS6RP, CST#7205) were used for PD analysis. Tumor powder was transferred to Eppendorf® tubes and lysis buffer (1 mL) was added to the powder. Protease and phosphatase inhibitors (SIGMA) and phenylmethanesulfonylfluoride (PMSF) were added to tumor powder and mixed by vortexing followed by sonication (15 sec). Samples were kept on an ice bath for 30 min. Supernatant was separated after centrifugation at 10,000 rpm for 20 min at 4° C. Supernatant was re-centrifuged and fresh supernatant was aliquoted to different tubes. Total protein was estimated using a BCA kit (Thermo Scientific) and 50 μg total protein was loaded to each well. ELISA analysis was carried out as per manufacturer's instructions. The detection for pAKT was based on chemiluminescence and pS6RP was based on absorbance. Qualitative assessments of the suppression of pAKT(T308), pAKT(5473), and pS6RP were also carried out by standard Western blot analyses.
For example, the compound of Example 1, at 50 mg/kg po, caused about 50% inhibition of pAkt(5473) at 1 and 4 hours and >50% inhibition of pS6RP at 1, 4 and 24 hours. Also, the compound of Example 2, at 50 mg/kg po, caused about 25-30% inhibition of pAkt(5473) at 4 and 24 hours and >50% inhibition of pS6RP at 1, 4 and 24 hours. The compound of example 51, at 30 mg/kg po, caused >50% inhibition of pS6RP at 2, 4 and 24 hours. Also, the compounds of examples 133, 146, 147, and 228, at 50 mg/kg po, each caused >50% inhibition of pS6RP at 3 and 8 hours.

[1] = tested on: pS6RP(S235/236), PC3 cells; test: In-cell Western assay, pS6RP(S235/236) in PC3 cells; type: cell-based, human
Summary of the method: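 Overnight-seeded PC3 cells were treated 2 h with serially diluted compound, then fixed and immunostained with phospho-specific primary antibodies and Eu-labelled secondary. Time-resolved Eu signal read at 615 nm (ex 340 nm), normalised by Hoechst 33258 staining (ex 355/em 460 nm); IC50 from sigmoidal dose-response fit.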

[2] = 50 mg/kg po single dose, at 1, 4 and 24 hours
[3] = Homo sapiens, PC-3, In-cell Western

| SMILES | IC50 [1, 3] [nM] | IC50 ([1]; In-cell Western) [nM] | inhibition at 50 mg/kg (pS6RP in PC3 tumor; [2]) [%] | inhibition at 30 mg/kg (pS6RP in PC3 tumor; 30 mg/kg po, at 2, 4 and 24 hours) [%] | inhibition at 50 mg/kg (pS6RP in PC3 tumor; 50 mg/kg po, at 3 and 8 hours) [%] |
| --- | --- | --- | --- | --- | --- |
| CN(C)C(=O)c1ccc(NC(=O)Nc2ccc(-c3nc(N4CCOCC4)c4ccc(-c5cncnc5)cc4n3)cc2)cc1 [Example 1, N,N-Dimethyl-4-(3-{4-[4-morpholin-4-yl-7-pyrimidin-5-yl-quinazolin-2-yl)-phenyl]-ureido}-benzamide] | < 100 | – | > 50 | – | – |
| Cc1ccc(-c2ccc3c(N4CCOCC4)nc(-c4ccc(NC(=O)Nc5ccc(C(=O)N(C)C)cc5)cc4)nc3c2)o1 [Example 2, N,N-Dimethyl-4-(3-{4-[7-(5-methyl-furan-2-yl)-4-morpholin-4-yl-quinazolin-2-yl]-phenyl}-ureido)-benzamide] | 100 to 500 | – | > 50 | – | – |
| CN(C)C(=O)c1ccc(NC(=O)Nc2ccc(-c3nc(N4CCOCC4)c4ccc(-c5cccnc5F)cc4n3)cc2)c(F)c1 [Example 146, 3-fluoro-4-(3-(4-(7-(2-fluoropyridin-3-yl)-4-morpholino-quinazolin-2-yl)phenyl)ureido)-N,N-dimethyl-benzamide] | – | – | – | – | > 50 |

Continued, in another order:

| IC50 [1, 3] [nM] | IC50 ([1]; In-cell Western) [nM] | SMILES | inhibition at 50 mg/kg (pS6RP in PC3 tumor; [2]) [%] | inhibition at 30 mg/kg (pS6RP in PC3 tumor; 30 mg/kg po, at 2, 4 and 24 hours) [%] | inhibition at 50 mg/kg (pS6RP in PC3 tumor; 50 mg/kg po, at 3 and 8 hours) [%] |
| --- | --- | --- | --- | --- | --- |
| – | 501 to 5000 | CN(C)C(=O)c1ccc(NC(=O)Nc2ccc(-c3nc(N4CCOCC4)c4ccc(-c5ccco5)cc4n3)cc2)cc1 [Example 51, 4-{3-[4-(7-furan-2-yl-4-morpholin-4-yl-quinazolin-2-yl)-phenyl]-ureido}-N,N-dimethyl-benzamide] | – | > 50 | – |
| 201 to 10000 | – | CN(C)C(=O)c1ccc(NC(=O)Nc2ccc(-c3nc(N4CCOCC4)c4ccc(-c5cncnc5)cc4n3)cc2)c(F)c1 [Example 133, 3-fluoro-N,N-dimethyl-4-(3-(4-(4-morpholino-7-(pyrimidin-5-yl)quinazolin-2-yl)phenyl)ureido)-benzamide] | – | – | > 50 |
